Experimental findings from publication PMC5462101 (Future medicinal chemistry, 2015) are described below.

SMILES strings stand for the structures.

One data set addresses T1, soybean lipoxygenase (Glycine max, UniProt P08170).
T1 construct: purchased Sigma
T1 sequence (P08170 1-839): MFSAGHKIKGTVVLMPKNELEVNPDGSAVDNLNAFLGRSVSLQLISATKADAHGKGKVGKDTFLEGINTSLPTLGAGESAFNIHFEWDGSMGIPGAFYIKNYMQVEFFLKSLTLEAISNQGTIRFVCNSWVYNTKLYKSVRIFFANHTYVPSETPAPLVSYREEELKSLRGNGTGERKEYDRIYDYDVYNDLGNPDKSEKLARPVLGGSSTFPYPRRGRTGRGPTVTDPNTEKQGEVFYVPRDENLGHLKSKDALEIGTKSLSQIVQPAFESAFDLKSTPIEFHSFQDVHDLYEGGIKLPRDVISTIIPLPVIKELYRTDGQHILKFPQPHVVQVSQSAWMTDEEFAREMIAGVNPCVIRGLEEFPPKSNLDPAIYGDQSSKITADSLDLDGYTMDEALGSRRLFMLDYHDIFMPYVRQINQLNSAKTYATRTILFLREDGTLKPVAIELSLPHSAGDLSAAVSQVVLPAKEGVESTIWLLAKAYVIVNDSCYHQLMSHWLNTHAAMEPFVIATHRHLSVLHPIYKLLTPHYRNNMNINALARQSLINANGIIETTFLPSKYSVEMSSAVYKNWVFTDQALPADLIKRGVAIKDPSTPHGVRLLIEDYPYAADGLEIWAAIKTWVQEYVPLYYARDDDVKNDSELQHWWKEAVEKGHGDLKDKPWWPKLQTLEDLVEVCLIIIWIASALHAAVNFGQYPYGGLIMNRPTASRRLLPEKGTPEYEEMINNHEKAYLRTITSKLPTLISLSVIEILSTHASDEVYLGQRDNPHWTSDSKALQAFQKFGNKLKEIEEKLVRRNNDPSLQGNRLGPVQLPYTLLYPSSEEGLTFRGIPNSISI
The experiment in a line: Inhibition of soybean lipoxygenase. Type of data set: biochemical. Particulars: for IC50: sodium linoleate 0.1 mM, read-out: Lipoxygenase inhibitory activity (IC50); for inhibition at 100 µM: compound at 100 µM, read-out: Lipoxygenase inhibitory activity (% at 100 µM). The procedure: The substituted pteridines prepared were assayed for inhibition of soybean lipoxygenase (Table 1) (Supplementary Information). Many studies have used readily obtainable soybean lipoxygenase, which is a homologue of mammalian lipoxygenase and well examined. The availability of soybean LOX and its well-characterized crystal structure led to its use in this study.
Determination of soybean lipoxygenase inhibition
A solution in DMSO of each compound to be tested was incubated at room temperature with sodium linoleate (0.1 mM) and a solution of soybean lipoxygenase (EC 1.13.11.12) (1:9 x 10^4 w/v in saline, 0.2 mL, Sigma). The conversion of sodium linoleate to 13-hydroperoxylinoleic acid was monitored by observation at 234 nm and compared with the value of appropriate standard inhibitor (Table 1).
(§1) IC50 determinations. OriginPro 8 was used to determine IC50 values from the sigmoidal line fitted to a graph of log[concentration] against the average percentage inhibition from two independent experiments, with at least 6 different concentrations. The SEM is the calculated standard error in the IC50 value of the fitted line.

Data set [1] in a line: Reducing ability in DPPH assay. Particulars: compound 100 μM. Here is the method: Previous work has shown that pterins, their dihydro- and their tetrahydro-derivatives can each be antioxidants or pro-oxidants, depending on the particular conditions. In the present study, several assays were used to assess in vitro antioxidant activity in order to obtain representative information; each method involves the generation of a different radical.
Determination of reducing activity using 1,1-diphenyl-2-picrylhydrazyl radical (DPPH)
To a solution of DPPH in absolute ethanol was added an equal volume of the compound to be tested dissolved in DMSO (20 µL). From a stock solution (10 mM) was prepared a final solution of 100 µM for evaluation of the compounds. The absorbance at 517 nm was recorded after 20 and 60 min at room temperature (Table 2).

Data set [2] is described as follows: Competition with DMSO for hydroxyl radicals. Particulars: compound at 100 µM, Fe3+/ascorbic acid, DMSO 33 mM. The procedure: Competition of the novel pteridine derivatives with dimethyl sulfoxide for hydroxyl radicals was measured. […] The majority of the derivatives were excellent scavengers of hydroxyl radicals with activity higher than the reference compound 6-hydroxy-2,5,7,8-tetramethylchroman-2-carboxylic acid (Trolox).
Competition of pteridine derivatives with DMSO for hydroxyl radicals
Hydroxyl radicals generated by the Fe^3+/ascorbic acid system were detected by determination of formaldehyde produced from the oxidation of DMSO, according to the procedure of Nash. The reaction mixture comprised ethylenediaminetetracetic acid (EDTA) (0.1 mM), Fe^3+ (167 μM), DMSO (33 mM) in phosphate buffer (50 mM, pH 7.4), ascorbic acid (10 mM) and the compound to be tested at 100 µM. After incubation at 37 °C for 30 min the mixture was quenched with aqueous trichloroacetic acid (17% w/v) (Table 2) and the percentage competition of the tested compounds with DMSO for hydroxyl radicals was determined (Table 2).

The nature of data set [3]: Inhibition of linoleic acid peroxidation (AAPH). To be noted: linoleic acid peroxidation initiated by AAPH, 37 °C, pH 7.4.
Source text: Azo compounds that generate free radicals through spontaneous thermal decomposition are useful for in vitro studies of free radical production. The water-soluble AAPH has been extensively used as a clean and controllable source of thermally produced alkylperoxyl free radicals. […] Evidently, the presence of 6,7-dimethyl groups on the pteridine ring greatly enhances protection against lipid peroxidation; the nature of the alkyl group and ring size on the 2-substituent has some, but much less, effect. […] The role of lipophilicity (as assessed from calculated clogP values; Table 1) is not clear, but substituent bulk plays a significant role.
Inhibition of linoleic acid peroxidation
Production of conjugated diene hydroperoxide by oxidation of linoleic acid in an aqueous dispersion was monitored at 234 nm. 2,2’-Azobis(2-amidinopropane) dihydrochloride (AAPH) was used as a free radical initiator. This assay was used to follow oxidative changes and to determine the inhibition of the peroxidation of sodium linoleate by each tested compound. A dispersion of sodium linoleate (16 mM, 10 μL) was added to the UV cuvette containing phosphate buffer (0.05 M, 0.93 mL) at pH 7.4 and kept in a thermostat at 37 °C. The oxidation reaction was initiated at 37 °C under air by the addition of AAPH solution (40 mM, 50 μL). Oxidation was carried out in the presence of aliquots (10 μL) of the tested compound. In the assay without antioxidant, lipid oxidation was measured in the presence of DMSO (10 μL). The rate of oxidation at 37 °C was monitored by recording the increase in absorption at 234 nm caused by conjugated diene hydroperoxide formation (Table 2).
as §1

What is called IC50 is the concentration needed to halve the response being measured. One may read the melting point as the temperature, or range, at which the solid turns liquid.

As for `CN1CCN(c2nc(NCc3cccs3)c3nonc3n2)CC1` [Compound 23], the IC50 at soybean lipoxygenase is 74 ± 3.5 µM; in data set [3], 0.32 ± 0.02 µM; in data set [3] (listed as 24), approximately 0.3 µM. Further, the “RA (%) 100μM 20 min” value in data set [1] stood at 16%. The “RA (%) 100μM 60 min” value in data set [1] stood at 18%. Moreover, the “Hydroxyl radicals scavenged (%)” value in data set [2] amounted to 94%.
`COc1ccccc1CNc1nc(N2CCN(C)CC2)nc2nccnc12` [Compound 18b]: on soybean lipoxygenase, the inhibition at 100 µM is 40 ± 0.2%. Besides, in data set [1], the “RA (%) 100μM 20 min” value is 13% and the “RA (%) 100μM 60 min” value is listed as 20%. Further, the “Hydroxyl radicals scavenged (%)” value in data set [2] came out at 90%. The compound further returned an IC50 in data set [3] of 21 ± 0.9 µM.
Turning to `CC(Cc1ccc(O)c(O)c1)C(C)Cc1ccc(O)c(O)c1` (centres unmarked) [NDGA, Nordihydroguaiaretic acid, reference compound], in data set [1], the “RA (%) 100μM 20 min” value is recorded as 81% and the “RA (%) 100μM 60 min” value was 83%.
Consider `CCN1CCNc2nc(N3CCN(C)CC3)nc(N3CCN(C)CC3)c21` [Compound 10a], for which the melting point lay in the range of 139 to 140 °C. At soybean lipoxygenase, the IC50 stood at 5 ± 0.1 µM. For the same compound, in data set [1], the “RA (%) 100μM 20 min” value is on record as 79% and the “RA (%) 100μM 60 min” value was 81%. Moreover, the “Hydroxyl radicals scavenged (%)” value in data set [2] turned out to be 96%. This compound returned an IC50 in data set [3] of 15 ± 0.2 µM.
Take `Cc1c(C)c2c(c(C)c1O)CCC(C)(C(=O)O)O2` (centres unmarked) [Trolox, 6-hydroxy-2,5,7,8-tetramethylchroman-2-carboxylic acid, reference compound]: the “Hydroxyl radicals scavenged (%)” value in data set [2] came to 73%. This compound gave a half-inhibitory concentration (IC50) in data set [3] of 55.5 µM.
`CCN1CCN(CC)c2c1nc(N1CCN(C)CC1)nc2N1CCN(C)CC1` [Compound 10b]: the IC50 at soybean lipoxygenase stood at 55 ± 0.2 µM. Further, in data set [1], the “RA (%) 100μM 20 min” value came to 98% and the “RA (%) 100μM 60 min” value turned out to be 97%. Further, the “Hydroxyl radicals scavenged (%)” value in data set [2] amounted to 98%. The compound further had an IC50 in data set [3] of 10 ± 0.43 µM.
`CN1CCCN(c2nc(NCc3cccs3)c3nccnc3n2)CC1` [Compound 20b] showed a melting point of 130 to 131 °C. In addition, the IC50 on soybean lipoxygenase was found to be 62.5 ± 0.5 µM. Further, in data set [1], the “RA (%) 100μM 20 min” value is listed as 15% and the “RA (%) 100μM 60 min” value is recorded as 19%. Besides, the “Hydroxyl radicals scavenged (%)” value in data set [2] is 94%. Moreover, the IC50 in data set [3] turned out to be 41 ± 0.3 µM.
With `CN1CCN(c2nc(N)c3nc(-c4ccccc4)c(-c4ccccc4)nc3n2)CC1` [Compound 5c], the melting point was 107 to 109 °C. In addition, the inhibition at 100 µM at soybean lipoxygenase came out at 22.5 ± 0.1%. In data set [1], the “RA (%) 100μM 20 min” value is given as 10% and the “RA (%) 100μM 60 min” value is on record as 6%. For the same compound, the “Hydroxyl radicals scavenged (%)” value in data set [2] was 100%. This compound yielded an IC50 in data set [3] of 0.5 ± 0.03 µM.
Consider `CCN1CCN(c2nc(NCc3cccs3)c3nccnc3n2)CC1` [Compound 20a], for which the melting point lay within 148 to 149 °C. Besides, the IC50 on soybean lipoxygenase came out at 43 ± 0.7 µM. Moreover, in data set [1], the “RA (%) 100μM 20 min” value is given as 4% and the “RA (%) 100μM 60 min” value was found to be 11%. The “Hydroxyl radicals scavenged (%)” value in data set [2] was found to be 92%. In data set [3], this compound displayed an IC50 of 20 ± 0.5 µM.
Compound `Cc1nc2nc(N3CCN(C)CC3)nc(NCc3cccs3)c2nc1C` [Compound 18g] yielded a melting point of 89 to 90 °C. The IC50 on soybean lipoxygenase was found to be 88.5 ± 1.2 µM. Further, in data set [1], the “RA (%) 100μM 20 min” value was 12% and the “RA (%) 100μM 60 min” value came out at 12%. In data set [2], the “Hydroxyl radicals scavenged (%)” value is 100%. Further, the IC50 in data set [3] turned out to be 0.1 ± 0.01 µM.
`CN1CCN(c2nc(NCCc3ccccc3)c3nccnc3n2)CC1` [Compound 18c] returned a melting point of 127 to 128 °C. The inhibition at 100 µM at soybean lipoxygenase worked out at 22.5 ± 0.2%. In data set [1], the “RA (%) 100μM 20 min” value is 11% and the “RA (%) 100μM 60 min” value worked out at 18%. Also, in data set [2], the “Hydroxyl radicals scavenged (%)” value is on record as 97%. In data set [3], this compound gave an IC50 of 10 ± 0.1 µM.
For the compound `CN1CCN(c2nc(N3CCN(C)CC3)c3nccnc3n2)CC1` [Compound 9], the IC50 at soybean lipoxygenase came out at 5 ± 0.1 µM; in data set [3], 0.73 ± 0.2 µM. Further, in data set [1], the “RA (%) 100μM 20 min” value is listed as 8%. For the same compound, the “RA (%) 100μM 60 min” value in data set [1] stood at 14%. In addition, the “Hydroxyl radicals scavenged (%)” value in data set [2] was 96%.
Consider `OC1CCCN(c2nc(N3CCCC(O)C3)c3nccnc3n2)C1` (centres unmarked) [Compound 13], for which the IC50 at soybean lipoxygenase is 60 ± 0.3 µM. Besides, in data set [1], the “RA (%) 100μM 20 min” value was found to be 6% and the “RA (%) 100μM 60 min” value worked out at 13%. Also, the “Hydroxyl radicals scavenged (%)” value in data set [2] was determined as 95%. In addition, the IC50 in data set [3] turned out to be 0.33 ± 0.01 µM.
Consider `CN1CCN(c2nc(NCc3ccco3)c3nccnc3n2)CC1` [Compound 18e], for which the melting point was 174 to 175 °C. The inhibition at 100 µM on soybean lipoxygenase came out at 24 ± 0.3%. In data set [1], the “RA (%) 100μM 20 min” value turned out to be 10% and the “RA (%) 100μM 60 min” value is recorded as 17%. For the same compound, in data set [2], the “Hydroxyl radicals scavenged (%)” value stood at 94%. In addition, in data set [3], it took 0.33 ± 0.03 µM to reach half-maximal inhibition (IC50).
Turning to `Cc1nc2nc(N3CCN(C)CC3)nc(N)c2nc1C` [Compound 5b], on soybean lipoxygenase, the IC50 amounted to 100 ± 0.3 µM. In addition, in data set [1], the “RA (%) 100μM 20 min” value worked out at 0% and the “RA (%) 100μM 60 min” value is 13%. Moreover, in data set [2], the “Hydroxyl radicals scavenged (%)” value stood at 94%. The IC50 in data set [3] is 40 ± 0.8 µM.
